Patent US12583820B2, “Broad spectrum antivirals against coronavirus” (priority 2020, dated 2026)
Like-named read-outs stand apart in the source and are kept apart here.

Columns and labels:
[1] = system: NV in the replicon harboring cells (HG23 cells); assay: microbe, parasite or virus in culture; assay type: cell-based, norovirus (NV)
SARS-CoV-2 = assay: microbe, parasite or virus in culture; assay type: cell-based
3CLpro of MERS-CoV = 3CLpro of MERS-CoV (Middle East respiratory syndrome-related coronavirus, UniProt K9N7C7); assay: biochemical; assay type: biochemical
Sequence of 3CLpro of MERS-CoV (K9N7C7 3248-3553 limits assumed): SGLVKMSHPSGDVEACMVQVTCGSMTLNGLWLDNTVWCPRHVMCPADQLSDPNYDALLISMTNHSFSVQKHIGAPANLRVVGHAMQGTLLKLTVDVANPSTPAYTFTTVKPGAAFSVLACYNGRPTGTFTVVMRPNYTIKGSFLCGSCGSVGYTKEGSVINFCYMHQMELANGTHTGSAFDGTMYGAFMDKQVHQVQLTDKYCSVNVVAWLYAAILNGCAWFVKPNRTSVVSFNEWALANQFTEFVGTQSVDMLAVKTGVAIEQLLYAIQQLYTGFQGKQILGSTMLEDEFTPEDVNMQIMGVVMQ

3CLpro of SARS-CoV-2 = target: T1, 3CLpro of SARS-CoV-2 (Severe acute respiratory syndrome coronavirus 2, UniProt P0DTD1); assay: biochemical; assay type: biochemical
T1 construct: The codon-optimized cDNA of full length of 3CLpro of SARS-CoV-2; 6xHis (N); made in house; pET-28a(+) vector (points to E. coli, my inference)

MERS-CoV = assay: microbe, parasite or virus in culture; assay type: cell-based
NV 3CLpro = NV 3CLpro (Norovirus, UniProt Q83883); assay: biochemical; assay type: biochemical
Sequence of NV 3CLpro (Q83883 1101-1281): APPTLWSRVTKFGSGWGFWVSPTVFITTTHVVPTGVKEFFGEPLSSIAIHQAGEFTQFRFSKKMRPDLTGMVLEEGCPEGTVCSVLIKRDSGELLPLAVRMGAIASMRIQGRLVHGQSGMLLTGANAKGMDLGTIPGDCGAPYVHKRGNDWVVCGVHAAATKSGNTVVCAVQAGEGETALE

in vitro = conditions: human
FIPV = assay: microbe, parasite or virus in culture; assay type: cell-based; conditions: Alphacoronavirus 1, CRFK, read-out: EC50 in cell culture (μM) FIPV
MHV-1 = assay: microbe, parasite or virus in culture; assay type: cell-based, mouse hepatitis virus (MHV); conditions: Murine coronavirus, read-out: EC50 in cell culture (μM) MHV
[2] = Nonspecific cytotoxic effects (CC50), CytoTox 96 kit; conditions: Huh-7, CRFK or CCL1 cells (confluent, 96-well plates)
3CLpro of SARS-CoV = 3CLpro of SARS-CoV (Severe acute respiratory syndrome coronavirus, UniProt P0C6X7); assay type: biochemical; conditions: read-out: IC50 in enzyme assay (μM) SARS-CoV
[3] = system: feline infectious peritonitis (FIP), a coronavirus-induced systemic disease; conditions: cited from earlier work
[4] = system: Huh-7, CRFK or CCL1 cells; assay: Nonspecific cytotoxic effects (CC50), CytoTox 96 kit; conditions: 72 h, 1 to 100 μM, Table 1
[5] = Norovirus, HG23, read-out: EC50 (μM) ± SD
[6] = read-out: IC50 in enzyme assay (μM) MERS-CoV

Structure (SMILES): CC(C)C[C@H](NC(=O)OCC(C)(C)c1cccc(Cl)c1)C(=O)N[C@H](C=O)C[C@@H]1CCNC1=O [Compound 5g (Scheme 2)]
- EC50 ([1]; read-out: EC50 (μM) ± SD): 0.17 ± 0.05 µM
- CC50 (HG23 cells): > 100000 nM
- EC50 (SARS-CoV-2; read-out: SARS-CoV-2 EC50 (μM) Cell culture): 0.18 µM
- IC50 (3CLpro of MERS-CoV; read-out: MERS-CoV IC50(μM) Enzyme): 0.08 µM
- IC50 (3CLpro of SARS-CoV-2; read-out: SARS-CoV-2 IC50 (μM) enzyme): 0.3 µM
- EC50 (MERS-CoV; read-out: MERS-CoV EC50 (μM) Cell culture): 0.05 µM
- IC50 (NV 3CLpro; read-out: IC50 (μM) ± SD): 0.27 ± 0.04 µM

Structure (SMILES): O=C[C@H](C[C@@H]1CCNC1=O)NC(=O)[C@H](CC1CCCCC1)NC(=O)OC1(c2cccc(Cl)c2)CC1 [Compound 5q]
- EC50 [1, 5]: 0.25 ± 0.07 µM
- CC50 (in vitro): 36500 ± 7100 nM
- IC50 (NV 3CLpro): 0.28 ± 0.06 µM

Structure (SMILES): CC(C)C[C@H](NC(=O)OC1(c2cccc(Cl)c2)CC1)C(=O)N[C@H](C=O)C[C@@H]1CCNC1=O [Compound 5r]
- EC50 [1, 5]: 0.65 ± 0.2 µM
- CC50 (in vitro): > 100000 nM
- IC50 (NV 3CLpro): 0.28 ± 0.03 µM

Structure (SMILES): O=C[C@H](C[C@@H]1CCNC1=O)NC(=O)[C@H](CC1CCCCC1)NC(=O)OC/C=C/c1cccc(Cl)c1 [Compound 5s]
- EC50 [1, 5]: 0.06 ± 0.01 µM
- CC50 (in vitro): 24100 ± 600 nM
- IC50 (NV 3CLpro): 0.14 ± 0.01 µM

Structure (SMILES): CC(C)C[C@H](NC(=O)OC/C=C/c1cccc(Cl)c1)C(=O)N[C@H](C=O)C[C@@H]1CCNC1=O [Compound 5t]
- EC50 [1, 5]: 0.08 ± 0.01 µM
- CC50 (in vitro): > 100000 nM
- IC50 (NV 3CLpro): 0.15 ± 0.05 µM

Structure (SMILES): CCCCC1CCC(OC(=O)N[C@@H](CC(C)C)C(=O)N[C@H](C=O)C[C@@H]2CCNC2=O)CC1 (stereo partly drawn) [Compound 6e (Scheme 1), 4-butylcyclohexyl ((S)-4-methyl-1-oxo-1-(((S)-1-oxo-3-((S)-2-oxopyrrolidin-3-yl)propan-2-yl)amino)pentan-2-yl)carbamate]
- EC50 (FIPV): 0.22 µM
- EC50 (SARS-CoV-2; Severe acute respiratory syndrome coronavirus 2, Vero C1008, read-out: EC50 in cell culture (μM) SARS-CoV-2): 0.1 µM
- IC50 (3CLpro of MERS-CoV; [6]): 0.15 µM
- EC50 (MHV-1): 0.12 µM
- CC50 at 72 h [2]: > 100000 nM
- IC50 (3CLpro of SARS-CoV): 0.9 µM
- IC50 (3CLpro of SARS-CoV-2): 0.8 µM

Structure (SMILES): CC(C)C[C@H](NC(=O)OC1CCCCC1)C(=O)N[C@@H](C[C@@H]1CCNC1=O)C(O)S(=O)(=O)[O-].[Na+] (stereo partly drawn) [Compound 7a (Scheme 1), sodium (2S)-2-((S)-2-(((cyclohexyloxy)carbonyl)amino)-4-methylpentanamido)-1-hydroxy-3-((S)-2-oxopyrrolidin-3-yl)propane-1-sulfonate]
- EC50 (FIPV): 0.07 µM
- IC50 (3CLpro of MERS-CoV; [6]): 0.15 µM
- EC50 (MHV-1): 0.08 µM
- CC50 at 72 h [2]: > 100000 nM
- IC50 (3CLpro of SARS-CoV): 3.8 µM
- IC50 (3CLpro of SARS-CoV-2): 3.5 µM
- EC50 values against MERS-CoV in cell culture (in words) (MERS-CoV): submicromolar
- EC50 (MERS-CoV; Middle East respiratory syndrome-related coronavirus, Huh-7, read-out: EC50 in cell culture (μM) MERS-CoV): 0.08 µM

Structure (SMILES): CC(C)C[C@H](NC(=O)OCc1ccccc1)C(=O)N[C@@H](C[C@@H]1CCNC1=O)C(O)S(=O)(=O)[O-].[Na+] (stereo partly shown) [GC376, reference compound]
- clinical efficacy in cats with feline infectious peritonitis (FIP) [3]: reversed the progression of FIP and resulted in clinical remission
- CC50 [4]: > 100000 nM
